# In PubChem BioAssay (NCI):
#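 Tested at 5 concentrations; 48 h exposure; 96-well plates; endpoints linearly interpolated, else capped at highest concentration. TGI denotes the concentration required for complete inhibition of growth.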
# System: IGROV1 ovarian
# Test: growth of human tumour cells (NCI), 48 h
row,SMILES,TGI
1,Oc1c(CN2CCOCC2)ccc(CN2CCOCC2)c1O,> 100 µM
2,CCC(O)CC1OC2(CCC1C)CC1OC(=O)/C=C\C(C)(O)C(O)C(C)C(O)C(OC3CC(OC)C(O)C(C)O3)C(O)C(C)(O)CCC/C=C/C3CC(C)COC3(O)CC(O2)C1C (stereo not given),47.1 µM

# System: SF-268 CNS
# Test: growth of human tumour cells (NCI), 48 h
row,SMILES,TGI
1,O=C1C=CC(=O)c2c(O)c(N3CCN(c4ccccn4)CC3)c(Cl)c(O)c21,7.44 µM
2,C/C(=N\NC(=S)Nc1ccccc1)c1nc2ncccc2[nH]1,39 µM
3,c1cc(-c2ccc(-c3ccc(C4=NCCCN4)cc3)o2)ccc1C1=NCCCN1,> 100 µM
4,Oc1c(CN2CCOCC2)ccc(CN2CCOCC2)c1O,> 100 µM
5,CCC(O)CC1OC2(CCC1C)CC1OC(=O)/C=C\C(C)(O)C(O)C(C)C(O)C(OC3CC(OC)C(O)C(C)O3)C(O)C(C)(O)CCC/C=C/C3CC(C)COC3(O)CC(O2)C1C (stereo not given),90.1 µM

# System: OVCAR-4 ovarian
# Test: growth of human tumour cells (NCI), 48 h
row,SMILES,TGI
1,O=C1C=CC(=O)c2c(O)c(N3CCN(c4ccccn4)CC3)c(Cl)c(O)c21,3.02 µM
2,C/C(=N\NC(=S)Nc1ccccc1)c1nc2ncccc2[nH]1,47.4 µM
3,c1cc(-c2ccc(-c3ccc(C4=NCCCN4)cc3)o2)ccc1C1=NCCCN1,> 100 µM
4,Oc1c(CN2CCOCC2)ccc(CN2CCOCC2)c1O,> 100 µM
5,CCC(O)CC1OC2(CCC1C)CC1OC(=O)/C=C\C(C)(O)C(O)C(C)C(O)C(OC3CC(OC)C(O)C(C)O3)C(O)C(C)(O)CCC/C=C/C3CC(C)COC3(O)CC(O2)C1C (stereo not given),48.6 µM

# System: 786-0 renal
# Test: growth of human tumour cells (NCI), 48 h
row,SMILES,TGI
1,O=C1C=CC(=O)c2c(O)c(N3CCN(c4ccccn4)CC3)c(Cl)c(O)c21,1.71 µM
2,C/C(=N\NC(=S)Nc1ccccc1)c1nc2ncccc2[nH]1,74 µM
3,c1cc(-c2ccc(-c3ccc(C4=NCCCN4)cc3)o2)ccc1C1=NCCCN1,> 100 µM
4,Oc1c(CN2CCOCC2)ccc(CN2CCOCC2)c1O,> 100 µM
5,CCC(O)CC1OC2(CCC1C)CC1OC(=O)/C=C\C(C)(O)C(O)C(C)C(O)C(OC3CC(OC)C(O)C(C)O3)C(O)C(C)(O)CCC/C=C/C3CC(C)COC3(O)CC(O2)C1C (stereo not given),> 89.4 µM

# System: MDA-MB-435
# Test: growth of human tumour cells (NCI), 48 h
row,SMILES,TGI
1,O=C1C=CC(=O)c2c(O)c(N3CCN(c4ccccn4)CC3)c(Cl)c(O)c21,9.29 µM
2,C/C(=N\NC(=S)Nc1ccccc1)c1nc2ncccc2[nH]1,60.3 µM
3,c1cc(-c2ccc(-c3ccc(C4=NCCCN4)cc3)o2)ccc1C1=NCCCN1,> 100 µM
4,Oc1c(CN2CCOCC2)ccc(CN2CCOCC2)c1O,> 100 µM
5,CCC(O)CC1OC2(CCC1C)CC1OC(=O)/C=C\C(C)(O)C(O)C(C)C(O)C(OC3CC(OC)C(O)C(C)O3)C(O)C(C)(O)CCC/C=C/C3CC(C)COC3(O)CC(O2)C1C (stereo not given),25.4 µM

# System: HL-60(TB) leukemia
# Test: growth of human tumour cells (NCI), 48 h
row,SMILES,TGI
1,O=C1C=CC(=O)c2c(O)c(N3CCN(c4ccccn4)CC3)c(Cl)c(O)c21,0.692 µM
2,C/C(=N\NC(=S)Nc1ccccc1)c1nc2ncccc2[nH]1,> 100 µM
3,c1cc(-c2ccc(-c3ccc(C4=NCCCN4)cc3)o2)ccc1C1=NCCCN1,> 100 µM
4,Oc1c(CN2CCOCC2)ccc(CN2CCOCC2)c1O,27.2 µM
5,CCC(O)CC1OC2(CCC1C)CC1OC(=O)/C=C\C(C)(O)C(O)C(C)C(O)C(OC3CC(OC)C(O)C(C)O3)C(O)C(C)(O)CCC/C=C/C3CC(C)COC3(O)CC(O2)C1C (stereo not given),10.6 µM

# System: SF-539 CNS
# Test: growth of human tumour cells (NCI), 48 h
row,SMILES,TGI
1,O=C1C=CC(=O)c2c(O)c(N3CCN(c4ccccn4)CC3)c(Cl)c(O)c21,3.2 µM
2,C/C(=N\NC(=S)Nc1ccccc1)c1nc2ncccc2[nH]1,6.8 µM
3,c1cc(-c2ccc(-c3ccc(C4=NCCCN4)cc3)o2)ccc1C1=NCCCN1,> 100 µM
4,Oc1c(CN2CCOCC2)ccc(CN2CCOCC2)c1O,> 100 µM
5,CCC(O)CC1OC2(CCC1C)CC1OC(=O)/C=C\C(C)(O)C(O)C(C)C(O)C(OC3CC(OC)C(O)C(C)O3)C(O)C(C)(O)CCC/C=C/C3CC(C)COC3(O)CC(O2)C1C (stereo not given),44.9 µM

# System: KM12 colon
# Test: growth of human tumour cells (NCI), 48 h
row,SMILES,TGI
1,O=C1C=CC(=O)c2c(O)c(N3CCN(c4ccccn4)CC3)c(Cl)c(O)c21,7.02 µM
2,C/C(=N\NC(=S)Nc1ccccc1)c1nc2ncccc2[nH]1,> 100 µM
3,c1cc(-c2ccc(-c3ccc(C4=NCCCN4)cc3)o2)ccc1C1=NCCCN1,> 100 µM
4,Oc1c(CN2CCOCC2)ccc(CN2CCOCC2)c1O,> 100 µM
5,CCC(O)CC1OC2(CCC1C)CC1OC(=O)/C=C\C(C)(O)C(O)C(C)C(O)C(OC3CC(OC)C(O)C(C)O3)C(O)C(C)(O)CCC/C=C/C3CC(C)COC3(O)CC(O2)C1C (stereo not given),16.8 µM

# System: PC-3 prostate
# Test: growth of human tumour cells (NCI), 48 h
row,SMILES,TGI
1,O=C1C=CC(=O)c2c(O)c(N3CCN(c4ccccn4)CC3)c(Cl)c(O)c21,4.48 µM
2,C/C(=N\NC(=S)Nc1ccccc1)c1nc2ncccc2[nH]1,> 100 µM
3,c1cc(-c2ccc(-c3ccc(C4=NCCCN4)cc3)o2)ccc1C1=NCCCN1,> 100 µM
4,Oc1c(CN2CCOCC2)ccc(CN2CCOCC2)c1O,> 100 µM
5,CCC(O)CC1OC2(CCC1C)CC1OC(=O)/C=C\C(C)(O)C(O)C(C)C(O)C(OC3CC(OC)C(O)C(C)O3)C(O)C(C)(O)CCC/C=C/C3CC(C)COC3(O)CC(O2)C1C (stereo not given),20.4 µM

# System: HCT-116 colon
# Test: growth of human tumour cells (NCI), 48 h
row,SMILES,TGI
1,O=C1C=CC(=O)c2c(O)c(N3CCN(c4ccccn4)CC3)c(Cl)c(O)c21,3.25 µM
2,C/C(=N\NC(=S)Nc1ccccc1)c1nc2ncccc2[nH]1,14 µM
3,c1cc(-c2ccc(-c3ccc(C4=NCCCN4)cc3)o2)ccc1C1=NCCCN1,> 100 µM
4,Oc1c(CN2CCOCC2)ccc(CN2CCOCC2)c1O,> 100 µM
5,CCC(O)CC1OC2(CCC1C)CC1OC(=O)/C=C\C(C)(O)C(O)C(C)C(O)C(OC3CC(OC)C(O)C(C)O3)C(O)C(C)(O)CCC/C=C/C3CC(C)COC3(O)CC(O2)C1C (stereo not given),29.5 µM

# System: M14 melanoma
# Test: growth of human tumour cells (NCI), 48 h
row,SMILES,TGI
1,O=C1C=CC(=O)c2c(O)c(N3CCN(c4ccccn4)CC3)c(Cl)c(O)c21,2.85 µM
2,C/C(=N\NC(=S)Nc1ccccc1)c1nc2ncccc2[nH]1,> 100 µM
3,c1cc(-c2ccc(-c3ccc(C4=NCCCN4)cc3)o2)ccc1C1=NCCCN1,> 100 µM
4,Oc1c(CN2CCOCC2)ccc(CN2CCOCC2)c1O,84 µM
5,CCC(O)CC1OC2(CCC1C)CC1OC(=O)/C=C\C(C)(O)C(O)C(C)C(O)C(OC3CC(OC)C(O)C(C)O3)C(O)C(C)(O)CCC/C=C/C3CC(C)COC3(O)CC(O2)C1C (stereo not given),22 µM

# System: HS 578T breast
# Test: growth of human tumour cells (NCI), 48 h
row,SMILES,TGI
1,O=C1C=CC(=O)c2c(O)c(N3CCN(c4ccccn4)CC3)c(Cl)c(O)c21,4.97 µM
2,C/C(=N\NC(=S)Nc1ccccc1)c1nc2ncccc2[nH]1,77.7 µM
3,c1cc(-c2ccc(-c3ccc(C4=NCCCN4)cc3)o2)ccc1C1=NCCCN1,> 100 µM
4,Oc1c(CN2CCOCC2)ccc(CN2CCOCC2)c1O,> 100 µM
5,CCC(O)CC1OC2(CCC1C)CC1OC(=O)/C=C\C(C)(O)C(O)C(C)C(O)C(OC3CC(OC)C(O)C(C)O3)C(O)C(C)(O)CCC/C=C/C3CC(C)COC3(O)CC(O2)C1C (stereo not given),38.2 µM

# System: HOP-92 NSCLC
# Test: growth of human tumour cells (NCI), 48 h
row,SMILES,TGI
1,O=C1C=CC(=O)c2c(O)c(N3CCN(c4ccccn4)CC3)c(Cl)c(O)c21,2.72 µM
2,C/C(=N\NC(=S)Nc1ccccc1)c1nc2ncccc2[nH]1,> 100 µM
3,c1cc(-c2ccc(-c3ccc(C4=NCCCN4)cc3)o2)ccc1C1=NCCCN1,> 100 µM
4,Oc1c(CN2CCOCC2)ccc(CN2CCOCC2)c1O,> 100 µM
5,CCC(O)CC1OC2(CCC1C)CC1OC(=O)/C=C\C(C)(O)C(O)C(C)C(O)C(OC3CC(OC)C(O)C(C)O3)C(O)C(C)(O)CCC/C=C/C3CC(C)COC3(O)CC(O2)C1C (stereo not given),> 100 µM

# System: CAKI-1 renal
# Test: growth of human tumour cells (NCI), 48 h
row,SMILES,TGI
1,O=C1C=CC(=O)c2c(O)c(N3CCN(c4ccccn4)CC3)c(Cl)c(O)c21,4.55 µM
2,C/C(=N\NC(=S)Nc1ccccc1)c1nc2ncccc2[nH]1,> 100 µM
3,c1cc(-c2ccc(-c3ccc(C4=NCCCN4)cc3)o2)ccc1C1=NCCCN1,> 100 µM
4,Oc1c(CN2CCOCC2)ccc(CN2CCOCC2)c1O,> 100 µM
5,CCC(O)CC1OC2(CCC1C)CC1OC(=O)/C=C\C(C)(O)C(O)C(C)C(O)C(OC3CC(OC)C(O)C(C)O3)C(O)C(C)(O)CCC/C=C/C3CC(C)COC3(O)CC(O2)C1C (stereo not given),33.3 µM

# System: OVCAR-8 ovarian
# Test: growth of human tumour cells (NCI), 48 h
row,SMILES,TGI
1,O=C1C=CC(=O)c2c(O)c(N3CCN(c4ccccn4)CC3)c(Cl)c(O)c21,6.25 µM
2,C/C(=N\NC(=S)Nc1ccccc1)c1nc2ncccc2[nH]1,16 µM
3,c1cc(-c2ccc(-c3ccc(C4=NCCCN4)cc3)o2)ccc1C1=NCCCN1,> 100 µM
